Source: patent EP0734206B1, “SURFACTANTS PROVIDING ENHANCED EFFICACY AND/OR RAINFASTNESS TO PESTICIDE FORMULATIONS” (MONSANTO COMPANY, priority 1993, dated 1995)

Assays:
[1] = tested on: Panicum maximum (guineagrass, PANMA); assay: greenhouse test of rainfastness of glyphosate formulations (Example 4); format: in vivo; settings: 1.68 kg a.e./ha, formulation 18.4% glyphosate a.e., 7% cocoamine quat 2EO, 10.2% nonionic surfactant
Experimental: (§1) Comparative herbicidal activity with and without simulated rain was determined in greenhouse and field tests. For greenhouse tests, seeds or propagules of selected species were planted in 10.2 cm square pots of soil with added fertilizer. Temperature and relative humidity were allowed to fluctuate within limits defined for each test described in the following Examples. Plants were allowed to grow until the desired growth stage or size (defined for each test) for spraying. Pots were selected for uniformity before treatment and three replicate pots were assigned to each treatment. Spray solutions were prepared by dilution or dissolution of concentrate herbicide formulations in water. When desired to test "tank mix" application of surfactant compositions, these were added to the spray solution at the required concentration. Spraying was performed with a device which simulates agricultural field spraying equipment, delivering a fine spray at a pressure of about 207 kilopascals. Speed of travel of the spray device over the plants was adjusted to give the desired spray volume (defined for each test). For logistical reasons, all three replicates of each treatment were sprayed together. "Rain" treatments were applied by repeated passage of a coarse spray of water over the plants at some desired period of time after herbicide spraying. The amount and duration of "rain" were noted. After spraying and "rain" treatment, the plants were returned to the greenhouse. Herbicidal efficacy was evaluated by visual assessment at one or more selected time periods after treatment and recorded as "percent control" on an arbitrary scale by comparison with untreated plants. On this scale 0 means no visible effect and 100 means death of all plants. In the Examples, percent control values given are the means of three replicates.
Aqueous concentrate formulations of the isopropylamine salt of glyphosate were prepared at a glyphosate a.e. loading of 18.4% (equivalent to about 200 g a.e./liter). All contained 7% cocoamine quat 2EO and 10.2% nonionic surfactant. Formulations of the present invention contained as the nonionic one of several secondary alcohol ethoxylates; other formulations were made containing nonionics such as Silwet L-77, 2,4,7,9-tetramethyl-5-decyne-4,7-diol 10EO, nonylphenol 8EO, 10EO and 12EO and C12-15 primary alcohol 7EO, 9EO and 12EO. These formulations were tested for rainfastness in a greenhouse test.
The test species was Panicum maximum (guineagrass, PANMA). All glyphosate formulations were applied at 1.68 kg a.e./ha (1.5 lb a.e./acre) in a spray volume of 185 l/ha (20 gallons/acre). Commercial Roundup herbicide was included as a standard. Simulated rain was applied in the amount of 6 mm over a period of 15 minutes, beginning 1 hour after glyphosate treatment.

[2] = cloud point of aqueous concentrate glyphosate formulations (Examples 2 and 3); format: physicochemical; settings: 31% glyphosate a.e. as isopropylamine salt
Experimental: Aqueous concentrate formulations of the isopropylamine salt of glyphosate were prepared at a glyphosate a.e. loading of 31% (equivalent to about 360 g a.e./liter). All contained 3.5% cocoamine quat 2EO. Secondary alcohol ethoxylates of the invention were included at a range of levels and cloud point of the formulation was determined. To measure cloud point, a sample of each formulation in a test tube was heated in a water bath until it became cloudy. The test tube was then removed from the water bath and the sample stirred with a thermometer until it became clear. The temperature at which the sample became clear was recorded as the cloud point of the formulation.
Aqueous concentrate formulations of the isopropylamine salt of glyphosate were prepared at the same glyphosate a.e. loading as in Example 2, but containing higher levels of cocoamine quat 2EO. Secondary alcohol ethoxylates of the invention were included at a range of levels and cloud point of the formulation was determined by the same procedure as in Example 2.

[3] = tested on: Elymus repens (quackgrass, AGRRE); assay: greenhouse test of rainfastness of glyphosate formulations (Example 5); format: in vivo; settings: formulation 31% glyphosate a.e., 7.5% cocoamine quat 2EO, 8.6% nonionic surfactant
Experimental: as §1
Aqueous concentrate formulations of the isopropylamine salt of glyphosate were prepared at a glyphosate a.e. loading of 31% (equivalent to about 360 g a.e./liter). All contained 7.5% cocoamine quat 2EO and 8.6% nonionic surfactant. Formulations of the present invention contained as the nonionic C11-15 secondary alcohol 9EO or C12 branched secondary alcohol 10EO; for comparison, other formulations were made containing nonionics disclosed as rainfastness aids in the prior art such as 2,4,7,9-tetramethyl-5-decyne-4,7-diol 10EO or nonylphenol 8EO. These formulations were tested for rainfastness in a greenhouse test.
The test species was Elymus repens (quackgrass, AGRRE). All glyphosate formulations were applied at both 0.84 and 1.68 kg a.e./ha (0.75 and 1.5 lb a.e./acre) in a spray volume of 20 gallons/acre (187 l/ha. Commercial Roundup herbicide was included as a standard. Simulated rain was applied in the amount of 6 mm over a period of 15 minutes, beginning 1 hour after glyphosate treatment. Data on percent inhibition without and with "rain" are presented in Table 6. Table 6

barley cv. Pennco = assay: short-term whole plant assay, barley regrowth after glyphosate treatment and trimming (Examples 7-8); format: in vivo; settings: T/Am 5 0, S/Al 9 0 % w/v, 7 days after treatment
Source text: In Examples 7 and 8, a short-term whole plant assay was used to evaluate relative efficacy of aqueous glyphosate compositions containing tallowamine 5EO and C11-15 secondary alcohol 9EO in different concentrations and proportions relative to one another.
Equal volumes of uniformly sized seeds (20-25 in number) of barley cv. Pennco were sown in a growing medium consisting of a 3:2:1 sand/soil/peat mixture in 4 inch square plastic pots. Pots were placed in a controlled environment growth chamber providing a 14 hour photoperiod, day and night temperatures of 78°F and 66°F respectively, and a relative humidity in the range from 30% to 50%. Light was provided by a combination of metal halide and sodium vapor lamps. All pots were bottom watered at 1200 hr on the first day, resulting in rapid saturation of the growing medium. Seedling emergence occurred on the third and fourth days. On the seventh day, all pots were fertilized by bottom watering with a Peters 20-20-20 fertilizer containing 475 ppm soluble nitrogen.
On the eighth day, pots were sorted into 6 replicate blocks according to plant size. Treatments, including no-treatment controls, were randomly assigned within each block, one treatment per pot.
Plants were treated with glyphosate compositions in rapid succession between 0830 hr and 0900 hr on the ninth day, when average plant height was 13-15 cm and the second leaf was just beginning to elongate. Compositions were applied using a calibrated single-nozzle track sprayer delivering 187 l/ha through a Teejet 8001E nozzle at 276 kilopascals. Plants were removed from the growth chamber immediately before treatment and returned to the same growth chamber immediately after treatment. Pots were spatially arranged in a randomized complete block experimental design. At 6 hours after treatment plants in all pots were trimmed by cutting to 20 mm above the top edge of the pot. This removed approximately 90% of the barley leaf area. Pots were bottom watered once daily for the remainder of the study. Data collection took place on the sixteenth day, 7 days after treatment.
Average height of barley regrowth in each pot was measured to the nearest 5 mm increment, from the earlier cutting height 20 mm above the edge of the pot. All plants in each pot were then cut at 20 mm above the edge of the pot and total fresh weight was recorded.
All compositions in this Example contained glyphosate as the isopropylamine salt at a concentration calculated to deliver 0.42 kg a.e./ha. Polyoxyethylene tallowamine 5EO (T/Am 5) concentration was varied independently of C11-15 secondary alcohol 9EO (S/Al 9) concentration as will be clear from the tables below. […]

[4] = Rain 6 mm over 15 minutes, 1 hour after treatment
[5] = 4% secondary alcohol, 3.5% cocoamine quat 2EO
[6] = 5% secondary alcohol, 3.5% cocoamine quat 2EO
[7] = 5% secondary alcohol, 5% cocoamine quat 2EO
[8] = 6% secondary alcohol, 3.5% cocoamine quat 2EO
[9] = 6% secondary alcohol, 5% cocoamine quat 2EO
[10] = 7% secondary alcohol, 3.5% cocoamine quat 2EO
[11] = 7% secondary alcohol, 5% cocoamine quat 2EO
[12] = 8% secondary alcohol, 5% cocoamine quat 2EO
[13] = 0.84 kg a.e./ha, Rain 6 mm over 15 minutes, 1 hour after treatment
[14] = 1.68 kg a.e./ha, Rain 6 mm over 15 minutes, 1 hour after treatment
[15] = averaged over glyphosate 0.07, 0.14 and 0.28 kg a.e./ha

## nonylphenol 10EO
[1]; No rain
  Percent inhibition of guineagrass 15 DAT: 100%
[1]; [4]
  Percent inhibition of guineagrass 15 DAT: 81%

## C12 branched secondary alcohol 6EO [C12 branched 6EO]
[2]; [5]
  Cloud points: >95 °C
[2]; [6]
  Cloud points: >95 °C
[2]; [7]
  Cloud points: >95 °C
[2]; [8]
  Cloud points: <25 °C
[2]; [9]
  Cloud points: <25 °C
[2]; [10]
  Cloud points: <25 °C
[2]; [11]
  Cloud points: <25 °C
[2]; [12]
  Cloud points: <25 °C
[1]; No rain
  Percent inhibition of guineagrass 15 DAT: 100%
[1]; [4]
  Percent inhibition of guineagrass 15 DAT: 66%

## 2,4,7,9-tetramethyl-5-decyne-4,7-diol 10EO [Adjuvant 2]
[1]; No rain
  Percent inhibition of guineagrass 15 DAT: 98%
[1]; [4]
  Percent inhibition of guineagrass 15 DAT: 94%
[3]; 0.84 kg a.e./ha, No rain
  Percent inhibition of quackgrass 28 DAT: 94%
[3]; [13]
  Percent inhibition of quackgrass 28 DAT: 78%
[3]; 1.68 kg a.e./ha, No rain
  Percent inhibition of quackgrass 28 DAT: 98%
[3]; [14]
  Percent inhibition of quackgrass 28 DAT: 94%

## C12 branched secondary alcohol 10EO [C12 branched 10EO]
[2]; [5]
  Cloud points: >95 °C
[2]; [6]
  Cloud points: 80 °C
[2]; [7]
  Cloud points: 80 °C
[2]; [8]
  Cloud points: 72 °C
[2]; [9]
  Cloud points: 68 °C
[2]; [10]
  Cloud points: 65 °C
[2]; [11]
  Cloud points: 65 °C
[2]; [12]
  Cloud points: 61 °C
[1]; No rain
  Percent inhibition of guineagrass 15 DAT: 100%
[1]; [4]
  Percent inhibition of guineagrass 15 DAT: 98%
[3]; 0.84 kg a.e./ha, No rain
  Percent inhibition of quackgrass 28 DAT: 94%
[3]; [13]
  Percent inhibition of quackgrass 28 DAT: 84%
[3]; 1.68 kg a.e./ha, No rain
  Percent inhibition of quackgrass 28 DAT: 100%
[3]; [14]
  Percent inhibition of quackgrass 28 DAT: 88%

## nonylphenol 12EO
[1]; No rain
  Percent inhibition of guineagrass 15 DAT: 100%
[1]; [4]
  Percent inhibition of guineagrass 15 DAT: 63%

## O=C(O)CNCP(=O)(O)O [glyphosate, N-phosphonomethylglycine]
Barley cv. Pennco; [15]
  Mean fresh weight of regrowth: 2.83 g
  Mean height of regrowth: 171 mm
Barley cv. Pennco; glyphosate 0.42 kg a.e./ha
  Mean fresh weight of regrowth: 1.92 g
  Mean height of regrowth: 148 mm

## nonylphenol 8EO
[1]; No rain
  Percent inhibition of guineagrass 15 DAT: 100%
[1]; [4]
  Percent inhibition of guineagrass 15 DAT: 97%
[3]; 0.84 kg a.e./ha, No rain
  Percent inhibition of quackgrass 28 DAT: 97%
[3]; [13]
  Percent inhibition of quackgrass 28 DAT: 83%
[3]; 1.68 kg a.e./ha, No rain
  Percent inhibition of quackgrass 28 DAT: 98%
[3]; [14]
  Percent inhibition of quackgrass 28 DAT: 79%
